This is an account of results in patent US7737251B2, “Long lasting glucagon-like peptide 2 (GLP-2) for the treatment of gastrointestinal diseases and disorders” (ConjuChem Biotechnologies Inc., priority 2001, dated 2010).

Ends that are not written are not given here. * marks the point of attachment. Propanoyl(3-maleimido) = O=C1C=CC(=O)N1CCC(=O)*

What all share (format): in vivo
For one series, the system named is normal mice. Kind of series: Intestinotrophic activity in normal mice model (small intestine weight). The settings on record: 5 μg/dose sc twice daily for 10 days, male CD-1 mice; for small intestine weight: vs saline control. Here is the method:
The intestinotrophic activity of the compounds of Examples 1-8 has been evaluated in a normal mice model. Five-week-old male CD-1 mice (20-25 g) were treated twice daily for 10 consecutive days with 5 μg/dose of each compound dissolved in 0.9% NaCl aqueous solution. The compounds were administered via subcutaneous injections in the dorsal-lateral area of the lumbar region. Control animals received 0.25 ml/dose of 0.9% NaCl.
On day 11, mice were fasted for 4 hours and anesthetized with CO2 Small intestines were removed, cleaned and weighed.

The subject of another series is CD-1 mice. Kind of series: Dose-response with selected Gly2-GLP-2 analogues (small and large intestine weight). Particulars: 5, 25 or 50 μg/dose sc twice daily for 10 days, female CD-1 mice. As to the method:
Six-week-old female CD-1 mice (20-25 g) were treated twice daily for 10 consecutive days with 5, 25 or 50 μg/dose of the compounds of Examples 5, 7 and 8. The compounds were dissolved in 0.083M sodium phosphate buffer, pH 6.8 and administered via subcutaneous injections in the dorsal-lateral area of the lumbar region. Control animals received 0.25 ml/dose of sodium phosphate buffer.
On day 11, fed mice were anesthetized with Halothane™ and small intestine, large intestine and stomach were collected from each mouse after laparatomy. The tissues were then cleaned and weighed.

Series [1] is described as follows: Pharmacokinetic profiles in rats (plasma radioimmunoassay). The settings on record: male, rat, single 500 nmol/kg, Sprague-Dawley rats; for half-life: harmonic mean; for Vd: read-out: Vss; for Tmax: expressed as media; for bioavailability: read-out: F (absolute bioavailability). Here is the method: The pharmacokinetic profiles of the compounds of Examples 5 and 8 were studied in normal rats following a single intravenous or subcutaneous injection. Plasma concentrations were determined by radioimmunoassay with a commercial antibody anti-human GLP-2.
Test articles were dissolved in 0.083M sodium phosphate buffer, pH 6.8 and administered to eight to eleven-week-old male Sprague-Dawley rats by a single intravenous or subcutaneous injection at a dose level of 500 nmol/kg. Serial blood samples (I50-200 μl) were collected into tubes containing EDTA and DPP-IV inhibitor at the following time-points: pre-dose, 5 and 30 min., and 1, 2, 4, 8, 24, 48, 72 and 96 hours post-test agent administration. Whole blood was centrifuged and subsequent plasma samples were recovered and stored at −80° C. until analysis.
The plasma concentrations of the compounds of Examples 5 and 8 were determined by radioimmunoassay using a rabbit polyclonal antibody anti-human GLP-2 (Peninsula Laboratories, RGG7167) and iodinated human GLP-2 as tracer.
Descriptive pharmacokinetic parameters were determined by standard model-independent methods (Gibaldi and Perrier, 1982) based on the analysis of plasma concentration-time data. Pharmacokinetic analyses were performed using macros written for Microsoft Excel 97. The following parameters were calculated: • Cmax is the maximum plasma concentration; • Tmax is the time when Cmax is observed; • T1/2 is the terminal half-life; • AUC(0-inf) is the area under the plasma concentration-time curve from time zero to time infinity; • F is the absolute bioavailability, • CL is the systemic clearance; • MRT is mean residence time; and • Vss is the steady-state volume of distribution.

The target of another series is T1, rat albumin (Rattus norvegicus, UniProt P02770).
T1 construct: from tissue; host or cells: rat plasma (Sprague-Dawley rats, in vivo conjugation after iv/sc dosing)
T1 sequence (P02770 25-608): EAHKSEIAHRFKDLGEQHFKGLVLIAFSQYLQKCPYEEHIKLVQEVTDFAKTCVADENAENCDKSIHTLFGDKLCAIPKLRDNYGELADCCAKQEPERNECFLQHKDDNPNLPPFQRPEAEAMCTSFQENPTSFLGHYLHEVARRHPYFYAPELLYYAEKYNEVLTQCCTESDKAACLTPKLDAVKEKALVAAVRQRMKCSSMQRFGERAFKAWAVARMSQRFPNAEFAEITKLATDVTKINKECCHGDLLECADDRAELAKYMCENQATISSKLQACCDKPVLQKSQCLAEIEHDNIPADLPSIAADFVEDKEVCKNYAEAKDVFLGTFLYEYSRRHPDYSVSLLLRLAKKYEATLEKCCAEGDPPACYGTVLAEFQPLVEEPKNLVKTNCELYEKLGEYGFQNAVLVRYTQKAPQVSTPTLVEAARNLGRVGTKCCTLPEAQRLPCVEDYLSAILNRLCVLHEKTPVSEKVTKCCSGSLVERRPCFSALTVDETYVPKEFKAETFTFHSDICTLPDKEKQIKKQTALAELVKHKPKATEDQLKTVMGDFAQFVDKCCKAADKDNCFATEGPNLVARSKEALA
Description: Immunoblotting of rat plasma for conjugation to plasma proteins. As to the method: Plasma samples obtained from the rat pharmacokinetic study were analyzed by immunoblotting. Plasma proteins were separated under non-reducing conditions using sodium-dodecyl-sulfate polyacrylamide gel electrophoresis (SDS-PAGE) according to Laemmli (1970). Plasma samples were first diluted 1:10 with distilled water and 20 μl was mixed with 10 μl of 3× Laemmli buffer (30 mM TrisCl, 3 mM EDTA, 15% SDS, pH 6.8) and 2 μl of bromophenol blue solution (0.1% bromophenol blue, 50% glycerol). Mixtures were placed in a boiling water bath for 3 min and loaded on gel. Proteins were first concentrated in a 3% stacking gel and then migrated through 8% separating gel using a mini-gel system with 10-well combs (1.5×4.8 mm). Electrophoresis was run under constant current at 15 mA/gel to concentrate proteins in stacking gel and at 20 mA/gel in separating gel for approximately 1.5 h.
Proteins were subsequently transferred onto a nitrocellulose membrane using a semi-dry transfer apparatus, for 1 hour at 100 mA/gel. Transfer efficacy was checked by reversible staining of the membrane with 1% red Ponceau™ solution.
Membranes were saturated overnight at 4° C. with Tris Buffered Saline (TBS) containing 5% low fat milk. […]
For orientation: Immunoblotting shows a protein as a band on a membrane.

Turning to “His-Ala-Asp-Gly-Ser-Phe-Ser-Asp-Glu-Met-Asn-Thr-Ile-Leu-Asp-Asn-Leu-Ala-Ala-Arg-Asp-Phe -Ile-Asn-Trp-Leu-Ile-Gln-Thr-Lys-Ile-Thr-Asp-CONH2 (HADGSFSDEMNTILDNLAARDFINWLIQTKITD-NH2) [Example 1]”, the small intestine weight result in the series on normal mice is “Significant increases”.

As for “His-Gly-Asp-Gly-Ser-Phe-Ser-Asp-Glu-Met-Asn-Thr-Ile-Leu-Asp-Lys(MPA)-Leu-Ala-Ala-Arg -Asp-Phe-Ile-Asn-Trp-Leu-Ile-Gln-Thr-Lys-Ile-Thr-Asp-CONH2 (HGDGSFSDEMNTILDK(Propanoyl(3-maleimido))LAARDFINWLIQTKITD-NH2; N-terminus assumed; SMILES CC[C@H](C)[C@H](NC(=O)[C@H](Cc1ccccc1)NC(=O)[C@H](CC(=O)O)NC(=O)[C@H](CCCNC(=N)N)NC(=O)[C@H](C)NC(=O)[C@H](C)NC(=O)[C@H](CC(C)C)NC(=O)[C@H](CCCCNC(=O)CCN1C(=O)C=CC1=O)NC(=O)[C@H](CC(=O)O)NC(=O)[C@H](CC(C)C)NC(=O)[C@@H](NC(=O)[C@@H](NC(=O)[C@H](CC(N)=O)NC(=O)[C@H](CCSC)NC(=O)[C@H](CCC(=O)O)NC(=O)[C@H](CC(=O)O)NC(=O)[C@H](CO)NC(=O)[C@H](Cc1ccccc1)NC(=O)[C@H](CO)NC(=O)CNC(=O)[C@H](CC(=O)O)NC(=O)CNC(=O)[C@@H](N)Cc1c[nH]cn1)[C@@H](C)O)[C@@H](C)CC)C(=O)N[C@@H](CC(N)=O)C(=O)N[C@@H](Cc1c[nH]c2ccccc12)C(=O)N[C@@H](CC(C)C)C(=O)N[C@H](C(=O)N[C@@H](CCC(N)=O)C(=O)N[C@H](C(=O)N[C@@H](CCCCN)C(=O)N[C@H](C(=O)N[C@H](C(=O)N[C@@H](CC(=O)O)C(N)=O)[C@@H](C)O)[C@@H](C)CC)[C@@H](C)O)[C@@H](C)CC) [Example 7]”, in the series with normal mice, the “intestinotrophic effects compared to the native GLP-2 peptides of Examples 1 and 3” value is given as “more pronounced intestinotrophic effects”; the small intestine weight result is “Significant increases”. Moreover, in the series on CD-1 mice, the “dose-response, large intestine weight” value was “no dose-response” and the “dose-response, small intestine weight” value is “No dose-response”.

Usually AUC(0-inf) stands for total exposure, with the tail of the curve extrapolated. Broadly, the Cmax is the maximum level reached in the sampled fluid or tissue. As usually defined, the MRT is the average time that molecules of a dose stay in the body. As usually defined, the clearance is the volume of plasma or blood freed of the substance per unit of time. Low values mean inefficient removal, high ones efficient removal. The half-life is how long it takes for the measured level to halve. Usually Tmax stands for the time from dosing to the highest level. As usually defined, the bioavailability is the share of a dose that reaches the circulation, judged against a reference dose that is usually intravenous. As to `CC[C@H](C)[C@H](NC(=O)[C@H](Cc1ccccc1)NC(=O)[C@H](CC(=O)O)NC(=O)[C@H](CCCNC(=N)N)NC(=O)[C@H](C)NC(=O)[C@H](C)NC(=O)[C@H](CC(C)C)NC(=O)[C@H](CC(N)=O)NC(=O)[C@H](CC(=O)O)NC(=O)[C@H](CC(C)C)NC(=O)[C@@H](NC(=O)[C@@H](NC(=O)[C@H](CC(N)=O)NC(=O)[C@H](CCSC)NC(=O)[C@H](CCC(=O)O)NC(=O)[C@H](CC(=O)O)NC(=O)[C@H](CO)NC(=O)[C@H](Cc1ccccc1)NC(=O)[C@H](CO)NC(=O)CNC(=O)[C@H](CC(=O)O)NC(=O)CNC(=O)[C@@H](N)Cc1c[nH]cn1)[C@@H](C)O)[C@@H](C)CC)C(=O)N[C@@H](CC(N)=O)C(=O)N[C@@H](Cc1c[nH]c2ccccc12)C(=O)N[C@@H](CC(C)C)C(=O)N[C@H](C(=O)N[C@@H](CCC(N)=O)C(=O)N[C@H](C(=O)N[C@@H](CCCCN)C(=O)N[C@H](C(=O)N[C@H](C(=O)N[C@@H](CC(=O)O)C(N)=O)[C@@H](C)O)[C@@H](C)CC)[C@@H](C)O)[C@@H](C)CC` [Example 5], in the series with normal mice, the “intestinotrophic effects compared to the native GLP-2 peptides of Examples 1 and 3” value was “more pronounced intestinotrophic effects”; the small intestine weight entry is “Significant increases”. Moreover, in the series on CD-1 mice, the “dose-response, large intestine weight” value is recorded as “no dose-response” and the “dose-response, small intestine weight” value was “No dose-response”. In series [1] (IV), this compound returned a total exposure AUC(0-inf) of 0.626 µM·h, a maximum concentration (Cmax) of 1560 nM, a mean residence time (MRT) of 0.3 h and a clearance of 13.9 mL/min/kg. Further, in series [1] (IV), the half-life is 1.5 h and the Vd was found to be 0.25 L/kg. In series [1] (SC), the AUC(0-inf) was found to be 0.205 µM·h, the Cmax came to 159 nM, the Tmax is 0.5 h and the half-life is 0.9 h. Moreover, the bioavailability in series [1] (SC) is 32.8%.

On to `CC[C@H](C)[C@H](NC(=O)[C@H](Cc1ccccc1)NC(=O)[C@H](CC(=O)O)NC(=O)[C@H](CCCNC(=N)N)NC(=O)[C@H](C)NC(=O)[C@H](C)NC(=O)[C@H](CC(C)C)NC(=O)[C@H](CC(N)=O)NC(=O)[C@H](CC(=O)O)NC(=O)[C@H](CC(C)C)NC(=O)[C@@H](NC(=O)[C@@H](NC(=O)[C@H](CC(N)=O)NC(=O)[C@H](CCSC)NC(=O)[C@H](CCC(=O)O)NC(=O)[C@H](CC(=O)O)NC(=O)[C@H](CO)NC(=O)[C@H](Cc1ccccc1)NC(=O)[C@H](CO)NC(=O)CNC(=O)[C@H](CC(=O)O)NC(=O)CNC(=O)[C@@H](N)Cc1c[nH]cn1)[C@@H](C)O)[C@@H](C)CC)C(=O)N[C@@H](CC(N)=O)C(=O)N[C@@H](Cc1c[nH]c2ccccc12)C(=O)N[C@@H](CC(C)C)C(=O)N[C@H](C(=O)N[C@@H](CCC(N)=O)C(=O)N[C@H](C(=O)N[C@@H](CCCCN)C(=O)N[C@H](C(=O)N[C@H](C(=O)N[C@@H](CC(=O)O)C(=O)N[C@@H](CCCCNC(=O)CCN1C(=O)C=CC1=O)C(N)=O)[C@@H](C)O)[C@@H](C)CC)[C@@H](C)O)[C@@H](C)CC` [Example 8], for which, in the series on normal mice, the “intestinotrophic effects compared to the native GLP-2 peptides of Examples 1 and 3” value was “more pronounced intestinotrophic effects”; the small intestine weight entry is listed as “Significant increases”. Further, the “conjugation to rat albumin” value at rat albumin (post-iv administration, anti-GLP-2 immunoblot) is “conjugates efficiently to rat albumin”. Moreover, the signal on albumin result at rat albumin (post-sc administration, anti-GLP-2 immunoblot (not shown)) was “weak signal”. Besides, in the series on CD-1 mice, the “dose-response, large intestine weight” value is “possible dose-response” and the “dose-response, small intestine weight” value is “possible dose-response”. Besides, in series [1] (IV), the AUC(0-inf) was 89.4 µM·h, the highest level (Cmax) was 10100 nM, the MRT was found to be 16.9 h and the clearance is 0.0942 mL/min/kg. In addition, in series [1] (IV), the half-life is 16.2 h and the Vd worked out at 0.0953 L/kg. In addition, in series [1] (SC), the AUC(0-inf) amounted to 13.5 µM·h, the highest concentration (Cmax) was found to be 651 nM, the Tmax amounted to 0.5 h and the half-life is 23.8 h. In series [1] (SC), the bioavailability amounted to 15.2%.

Consider “His-Ala-Asp-Gly-Ser-Phe-Ser-Asp-Glu-Met-Asn-Thr-Ile-Leu-Asp-Asn-Leu-Ala-Ala-Arg-Asp-Phe -Ile-Asn-Trp-Leu-Ile-Gln-Thr-Lys-Ile-Thr-Asp-Lys(MPA)-CONH2 (HADGSFSDEMNTILDNLAARDFINWLIQTKITDK; MPA; C-terminal amide; analog of GLP-2; VARIANT (34)...(34): MPA attached to the Lys residue; AMIDATION (34)...(34)) [Example 3]”, for which, in the series on normal mice, the small intestine weight result is recorded as “Significant increases”.
